Experimental data: patent US20210024483A1, “HETEROCYLCOALKENYL DERIVATIVES USEFUL AS AGONISTS OF THE GPR120 AND / OR GPR40” (Janssen Pharmaceutica NV, priority 2018, published 2021)
pEC50: −log10 of the molar value.

Molecular target: T1, Human GPR120 short form (short splice variant, NM_001195755.1) (Homo sapiens, UniProt Q5NUL3)
T1 construct: expressed in transfected cells; host or cells: HEK293
T1 sequence (Q5NUL3 1-361): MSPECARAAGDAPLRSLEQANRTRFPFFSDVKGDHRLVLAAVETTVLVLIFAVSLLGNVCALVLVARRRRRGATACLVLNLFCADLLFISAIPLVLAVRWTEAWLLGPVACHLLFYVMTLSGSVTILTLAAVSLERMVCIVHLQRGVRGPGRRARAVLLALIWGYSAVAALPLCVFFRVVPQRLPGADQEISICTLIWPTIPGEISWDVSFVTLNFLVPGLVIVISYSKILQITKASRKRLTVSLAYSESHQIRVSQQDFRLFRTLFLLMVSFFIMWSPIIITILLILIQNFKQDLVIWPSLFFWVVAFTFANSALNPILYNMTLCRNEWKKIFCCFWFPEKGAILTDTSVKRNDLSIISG
Assay: Human GPR120 Calcium Flux Assay
Type: cell-based
Details: HEK-293 cells, 4200 cells/well, read-out: Human GPR120 Calcium Flux Assay Procedure B EC50
Summary of the method: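 HEK293 cells stably expressing human GPR120 short form were starved 1 h and loaded with Fluo-4 NW dye with probenecid. Compound-induced calcium flux was read on FLIPR for 300 s, with the response taken as max minus min RFU. EC50 came from sigmoidal variable-slope fits.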

- pEC50: 6.96
Compound: Cc1c(CCC(=O)O)ccc(OCC2=C(c3ccc(Cl)cc3)COCC2)c1C [ID No. 745, 3-[4-[[5-(4-chlorophenyl)-3,6-dihydro-2H-pyran-4-yl]methoxy]-2,3-dimethyl-phenyl]propanoic acid]
